Results: patent US4508663A, “Process for preparing thiosulfenamide derivatives of N-phosphonomethylglycinonitriles” (Monsanto Company, priority 1983, dated 1985)

Legend:
Assay in all cases: post-emergence herbicidal activity, greenhouse
Format in all cases: in vivo
Morningglory = conditions: 4 WAT
Summary of the method: (§1)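 Plants grown from seed or perennial propagules in greenhouse soil pans were sprayed at two to three weeks with compound solution or suspension containing about 0.4% emulsifier, at the stated application rates. Injury relative to untreated controls was scored at approximately two and four weeks after treatment on a post-emergence activity index.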

Yellow Nutsedge = conditions: Table I, 4 WAT
Summary of the method: as §1

Panicum Spp = conditions: Table II, 4 WAT
Summary of the method: as §1

Hemp Sesbania = conditions: Table II, 4 WAT
Summary of the method: as §1

Crabgrass = conditions: Table II, 4 WAT
Summary of the method: as §1

Barnyardgrass = conditions: 4 WAT
Summary of the method: as §1

Soybean = conditions: Table II, 4 WAT
Summary of the method: as §1

Velvetleaf = conditions: 4 WAT
Summary of the method: as §1

Sorghum = conditions: Table II, 4 WAT
Summary of the method: as §1

Cocklebur = conditions: 4 WAT
Summary of the method: as §1

Smartweed = conditions: 4 WAT
Summary of the method: as §1

Rice = conditions: Table II, 4 WAT
Summary of the method: as §1

Wild Buckwheat = conditions: Table II, 4 WAT
Summary of the method: as §1

Johnsongrass = conditions: Table I, 4 WAT
Summary of the method: as §1

Downy Brome = conditions: 4 WAT
Summary of the method: as §1

Canada Thistle = conditions: Table I, 4 WAT
Summary of the method: as §1

Sugar Beet = conditions: Table II, 4 WAT
Summary of the method: as §1

Wheat = conditions: Table II, 4 WAT
Summary of the method: as §1

Quackgrass = conditions: Table I, 4 WAT
Summary of the method: as §1

Lambsquarters = conditions: 4 WAT
Summary of the method: as §1

## N#CCN(CP(=O)(Oc1ccccc1)Oc1ccccc1)SCl [I]
Morningglory; Table I, 5.6 kg/h
  post-emergence herbicidal activity index: 2 (50-74% control)
Morningglory; Table I, 11.2 kg/h
  post-emergence herbicidal activity index: 2 (50-74% control)
Morningglory; Table II, 0.28 kg/h
  post-emergence herbicidal activity index: 0 (0-24% control)
Morningglory; Table II, 1.12 kg/h
  post-emergence herbicidal activity index: 1 (25-49% control)
Morningglory; Table II, 5.6 kg/h
  post-emergence herbicidal activity index: 2 (50-74% control)
Yellow Nutsedge; 5.6 kg/h
  post-emergence herbicidal activity index: 2 (50-74% control)
Yellow Nutsedge; 11.2 kg/h
  post-emergence herbicidal activity index: 2 (50-74% control)
Panicum Spp; 0.28 kg/h
  post-emergence herbicidal activity index: 0 (0-24% control)
Panicum Spp; 1.12 kg/h
  post-emergence herbicidal activity index: 0 (0-24% control)
Panicum Spp; 5.6 kg/h
  post-emergence herbicidal activity index: 1 (25-49% control)
Hemp Sesbania; 0.28 kg/h
  post-emergence herbicidal activity index: 0 (0-24% control)
Hemp Sesbania; 1.12 kg/h
  post-emergence herbicidal activity index: 0 (0-24% control)
Hemp Sesbania; 5.6 kg/h
  post-emergence herbicidal activity index: 2 (50-74% control)
Crabgrass; 0.28 kg/h
  post-emergence herbicidal activity index: 0 (0-24% control)
Crabgrass; 1.12 kg/h
  post-emergence herbicidal activity index: 2 (50-74% control)
Barnyardgrass; Table I, 5.6 kg/h
  post-emergence herbicidal activity index: 1 (25-49% control)
Barnyardgrass; Table I, 11.2 kg/h
  post-emergence herbicidal activity index: 2 (50-74% control)
Barnyardgrass; Table II, 0.28 kg/h
  post-emergence herbicidal activity index: 0 (0-24% control)
Barnyardgrass; Table II, 1.12 kg/h
  post-emergence herbicidal activity index: 1 (25-49% control)
Barnyardgrass; Table II, 5.6 kg/h
  post-emergence herbicidal activity index: 2 (50-74% control)
Soybean; 0.28 kg/h
  post-emergence herbicidal activity index: 1 (25-49% control)
Soybean; 1.12 kg/h
  post-emergence herbicidal activity index: 1 (25-49% control)
Soybean; 5.6 kg/h
  post-emergence herbicidal activity index: 2 (50-74% control)
Velvetleaf; Table I, 5.6 kg/h
  post-emergence herbicidal activity index: 2 (50-74% control)
Velvetleaf; Table I, 11.2 kg/h
  post-emergence herbicidal activity index: 2 (50-74% control)
Velvetleaf; Table II, 0.28 kg/h
  post-emergence herbicidal activity index: 1 (25-49% control)
Velvetleaf; Table II, 1.12 kg/h
  post-emergence herbicidal activity index: 1 (25-49% control)
Velvetleaf; Table II, 5.6 kg/h
  post-emergence herbicidal activity index: 2 (50-74% control)
Sorghum; 0.28 kg/h
  post-emergence herbicidal activity index: 1 (25-49% control)
Sorghum; 1.12 kg/h
  post-emergence herbicidal activity index: 2 (50-74% control)
Sorghum; 5.6 kg/h
  post-emergence herbicidal activity index: 3 (75-99% control)
Cocklebur; Table I, 5.6 kg/h
  post-emergence herbicidal activity index: 3 (75-99% control)
Cocklebur; Table I, 11.2 kg/h
  post-emergence herbicidal activity index: 2 (50-74% control)
Cocklebur; Table II, 0.28 kg/h
  post-emergence herbicidal activity index: 2 (50-74% control)
Cocklebur; Table II, 1.12 kg/h
  post-emergence herbicidal activity index: 2 (50-74% control)
Cocklebur; Table II, 5.6 kg/h
  post-emergence herbicidal activity index: 2 (50-74% control)
Smartweed; Table I, 5.6 kg/h
  post-emergence herbicidal activity index: 0 (0-24% control)
Smartweed; Table I, 11.2 kg/h
  post-emergence herbicidal activity index: 2 (50-74% control)
Smartweed; Table II, 0.28 kg/h
  post-emergence herbicidal activity index: 1 (25-49% control)
Smartweed; Table II, 1.12 kg/h
  post-emergence herbicidal activity index: 0 (0-24% control)
Rice; 0.28 kg/h
  post-emergence herbicidal activity index: 0 (0-24% control)
Rice; 1.12 kg/h
  post-emergence herbicidal activity index: 0 (0-24% control)
Rice; 5.6 kg/h
  post-emergence herbicidal activity index: 1 (25-49% control)
Wild Buckwheat; 0.28 kg/h
  post-emergence herbicidal activity index: 0 (0-24% control)
Wild Buckwheat; 1.12 kg/h
  post-emergence herbicidal activity index: 0 (0-24% control)
Wild Buckwheat; 5.6 kg/h
  post-emergence herbicidal activity index: 2 (50-74% control)
Johnsongrass; 5.6 kg/h
  post-emergence herbicidal activity index: 1 (25-49% control)
Johnsongrass; 11.2 kg/h
  post-emergence herbicidal activity index: 1 (25-49% control)
Downy Brome; Table I, 5.6 kg/h
  post-emergence herbicidal activity index: 0 (0-24% control)
Downy Brome; Table I, 11.2 kg/h
  post-emergence herbicidal activity index: 2 (50-74% control)
Downy Brome; Table II, 0.28 kg/h
  post-emergence herbicidal activity index: 1 (25-49% control)
Downy Brome; Table II, 1.12 kg/h
  post-emergence herbicidal activity index: 0 (0-24% control)
Downy Brome; Table II, 5.6 kg/h
  post-emergence herbicidal activity index: 1 (25-49% control)
Canada Thistle; 5.6 kg/h
  post-emergence herbicidal activity index: 1 (25-49% control)
Canada Thistle; 11.2 kg/h
  post-emergence herbicidal activity index: 2 (50-74% control)
Sugar Beet; 0.28 kg/h
  post-emergence herbicidal activity index: 0 (0-24% control)
Sugar Beet; 1.12 kg/h
  post-emergence herbicidal activity index: 0 (0-24% control)
Sugar Beet; 5.6 kg/h
  post-emergence herbicidal activity index: 0 (0-24% control)
Wheat; 0.28 kg/h
  post-emergence herbicidal activity index: 0 (0-24% control)
Wheat; 1.12 kg/h
  post-emergence herbicidal activity index: 1 (25-49% control)
Wheat; 5.6 kg/h
  post-emergence herbicidal activity index: 1 (25-49% control)
Quackgrass; 5.6 kg/h
  post-emergence herbicidal activity index: 0 (0-24% control)
Quackgrass; 11.2 kg/h
  post-emergence herbicidal activity index: 1 (25-49% control)
Lambsquarters; Table I, 5.6 kg/h
  post-emergence herbicidal activity index: 4 (100% control)
Lambsquarters; Table I, 11.2 kg/h
  post-emergence herbicidal activity index: 3 (75-99% control)
Lambsquarters; Table II, 0.28 kg/h
  post-emergence herbicidal activity index: 2 (50-74% control)
Lambsquarters; Table II, 1.12 kg/h
  post-emergence herbicidal activity index: 4 (100% control)
Lambsquarters; Table II, 5.6 kg/h
  post-emergence herbicidal activity index: 4 (100% control)

## CC(C)CCSSN(CC#N)CP(=O)(Oc1ccccc1)Oc1ccccc1 [V, Phosphonic acid, [[(cyanomethyl)[(3-methylbutyl)-dithio]amino]methyl]-, diphenyl ester]
Morningglory; Table I, 5.6 kg/h
  post-emergence herbicidal activity index: 2 (50-74% control)
Morningglory; Table I, 11.2 kg/h
  post-emergence herbicidal activity index: 2 (50-74% control)
Morningglory; Table II, 1.12 kg/h
  post-emergence herbicidal activity index: 1 (25-49% control)
Morningglory; Table II, 5.6 kg/h
  post-emergence herbicidal activity index: 2 (50-74% control)
Yellow Nutsedge; 5.6 kg/h
  post-emergence herbicidal activity index: 2 (50-74% control)
Yellow Nutsedge; 11.2 kg/h
  post-emergence herbicidal activity index: 2 (50-74% control)
Panicum Spp; 1.12 kg/h
  post-emergence herbicidal activity index: 0 (0-24% control)
Panicum Spp; 5.6 kg/h
  post-emergence herbicidal activity index: 1 (25-49% control)
Hemp Sesbania; 1.12 kg/h
  post-emergence herbicidal activity index: 0 (0-24% control)
Hemp Sesbania; 5.6 kg/h
  post-emergence herbicidal activity index: 1 (25-49% control)
Crabgrass; 1.12 kg/h
  post-emergence herbicidal activity index: 1 (25-49% control)
Crabgrass; 5.6 kg/h
  post-emergence herbicidal activity index: 3 (75-99% control)
Barnyardgrass; Table I, 5.6 kg/h
  post-emergence herbicidal activity index: 2 (50-74% control)
Barnyardgrass; Table I, 11.2 kg/h
  post-emergence herbicidal activity index: 3 (75-99% control)
Barnyardgrass; Table II, 1.12 kg/h
  post-emergence herbicidal activity index: 1 (25-49% control)
Barnyardgrass; Table II, 5.6 kg/h
  post-emergence herbicidal activity index: 3 (75-99% control)
Soybean; 1.12 kg/h
  post-emergence herbicidal activity index: 1 (25-49% control)
Soybean; 5.6 kg/h
  post-emergence herbicidal activity index: 2 (50-74% control)
Velvetleaf; Table I, 5.6 kg/h
  post-emergence herbicidal activity index: 1 (25-49% control)
Velvetleaf; Table I, 11.2 kg/h
  post-emergence herbicidal activity index: 0 (0-24% control)
Velvetleaf; Table II, 1.12 kg/h
  post-emergence herbicidal activity index: 0 (0-24% control)
Velvetleaf; Table II, 5.6 kg/h
  post-emergence herbicidal activity index: 2 (50-74% control)
Sorghum; 1.12 kg/h
  post-emergence herbicidal activity index: 2 (50-74% control)
Sorghum; 5.6 kg/h
  post-emergence herbicidal activity index: 3 (75-99% control)
Cocklebur; Table I, 5.6 kg/h
  post-emergence herbicidal activity index: 2 (50-74% control)
Cocklebur; Table I, 11.2 kg/h
  post-emergence herbicidal activity index: 3 (75-99% control)
Cocklebur; Table II, 1.12 kg/h
  post-emergence herbicidal activity index: 1 (25-49% control)
Cocklebur; Table II, 5.6 kg/h
  post-emergence herbicidal activity index: 3 (75-99% control)
Smartweed; Table I, 5.6 kg/h
  post-emergence herbicidal activity index: 1 (25-49% control)
Smartweed; Table I, 11.2 kg/h
  post-emergence herbicidal activity index: 3 (75-99% control)
Smartweed; Table II, 1.12 kg/h
  post-emergence herbicidal activity index: 0 (0-24% control)
Smartweed; Table II, 5.6 kg/h
  post-emergence herbicidal activity index: 1 (25-49% control)
Rice; 1.12 kg/h
  post-emergence herbicidal activity index: 0 (0-24% control)
Rice; 5.6 kg/h
  post-emergence herbicidal activity index: 1 (25-49% control)
Wild Buckwheat; 1.12 kg/h
  post-emergence herbicidal activity index: 0 (0-24% control)
Wild Buckwheat; 5.6 kg/h
  post-emergence herbicidal activity index: 1 (25-49% control)
Johnsongrass; 5.6 kg/h
  post-emergence herbicidal activity index: 1 (25-49% control)
Johnsongrass; 11.2 kg/h
  post-emergence herbicidal activity index: 3 (75-99% control)
Downy Brome; Table I, 5.6 kg/h
  post-emergence herbicidal activity index: 2 (50-74% control)
Downy Brome; Table I, 11.2 kg/h
  post-emergence herbicidal activity index: 2 (50-74% control)
Downy Brome; Table II, 1.12 kg/h
  post-emergence herbicidal activity index: 2 (50-74% control)
Downy Brome; Table II, 5.6 kg/h
  post-emergence herbicidal activity index: 2 (50-74% control)
Canada Thistle; 5.6 kg/h
  post-emergence herbicidal activity index: 2 (50-74% control)
Canada Thistle; 11.2 kg/h
  post-emergence herbicidal activity index: 1 (25-49% control)
Sugar Beet; 1.12 kg/h
  post-emergence herbicidal activity index: 1 (25-49% control)
Sugar Beet; 5.6 kg/h
  post-emergence herbicidal activity index: 1 (25-49% control)
Wheat; 1.12 kg/h
  post-emergence herbicidal activity index: 0 (0-24% control)
Wheat; 5.6 kg/h
  post-emergence herbicidal activity index: 1 (25-49% control)
Quackgrass; 5.6 kg/h
  post-emergence herbicidal activity index: 1 (25-49% control)
Quackgrass; 11.2 kg/h
  post-emergence herbicidal activity index: 2 (50-74% control)
Lambsquarters; Table I, 5.6 kg/h
  post-emergence herbicidal activity index: 4 (100% control)
Lambsquarters; Table I, 11.2 kg/h
  post-emergence herbicidal activity index: 3 (75-99% control)
Lambsquarters; Table II, 1.12 kg/h
  post-emergence herbicidal activity index: 1 (25-49% control)
Lambsquarters; Table II, 5.6 kg/h
  post-emergence herbicidal activity index: 3 (75-99% control)
